Read-outs that look alike come from different tables or passages of the source.
Tests used:
MCF-10A cells = assay: Apoptosis/necrosis assay (Annexin V–propidium iodide, flow cytometry); type: cell-based, human
Protocol: Apoptosis and necrosis were determined using the Apoptosis/Necrosis Detection kit (Abcam, Cambridge, UK) according to the manufacturer’s instructions. In brief, approximately 500,000 cells were seeded in 6-well plates (Corning) for 24 h. […] Cells were harvested and collected by centrifugation. All the samples were analyzed in triplicate using flow cytometry equipment FACSCalibur instrument (BD Biosciences, San Jose, CA, USA) at […] and 575-nm emission. Data analysis was performed using the FlowJo software (Tree Star Inc., Ashland, OR, USA). All experiments were performed in triplicate.

MDA-MB-231 cells [1] = assay: Clonogenic assay; type: cell-based, human; conditions: MDA-MB-231, 10 to 12 days; C14 and P8 at IC50-48, cisplatin 100 µM, doxorubicin 0.5 µM
Protocol: (§1) The principal aim of a clonogenic assay is to evaluate the effect of chemotherapy agents or new drugs by the measurement of their ability to arrest tumor cell division and their ability to develop new colonies after their exposure to these new drugs ([56]). Therefore, the colony formation ability of the cell lines MCF-10A, MDA-MB-231, and MDA-MB-231RR was evaluated after their exposure to the C14 and P8 compounds. In brief, breast cancer cell lines were cultured in 6-well plates (Corning), seeding 300 cells per well, and incubated at 37°C in 5% CO2 for 24 h. Compounds C14 and P8 were added at the maximum evaluated concentration IC50-48. As controls, cells without treatment and cells treated in the presence of a vehicle (DMSO at 0.66%) were employed (Sigma-Aldrich). […] After 10 days of treatment, cells were fixed with 4% PFA and stained with 0.1% crystal violet in citric acid (Sigma-Aldrich) for 15 minutes. Subsequently, the dye present in the cells was extracted using isopropanol and read at 570 nm in a Synergy-HTX microplate reader (BioTek). Each test was performed in triplicate. Data were expressed as % colonies relative to the untreated control ([56]).

MDA-MB-231RR cells = assay: Clonogenic assay; type: cell-based, human; conditions: for reduction in colony formation: 10 to 12 days, C14 and P8 at IC50-48, cisplatin 100 µM, doxorubicin 0.5 µM
Protocol: as §1

[2] = tested on: MDA-MB-231RR xenograft tumors; assay: Orthotopic breast carcinoma xenograft, tumor growth; type: in vivo, Nu/Nu nude mice; conditions: female Nu/Nu mice, i.p. daily for 15 days, 30 mg/kg (methods: P8 10 mg/kg)
Protocol: Female immune-deficient Nu/Nu nude mice at 6–8 weeks of age ([…], Mexico City, Mexico) were maintained in pathogen-free conditions with irradiated chow. The animals were subcutaneously injected in the left 4th mammary gland with 2 × 10^6 MDA-MB-231RR cells per tumor in 0.1 ml of sterile phosphate-buffered saline. When MDA-MB-231RR cells reached palpable tumors (≥100 mm^3), mice were divided randomly into four groups receiving vehicle (10% DMSO, 0.05% carboxy methyl cellulose, and 0.02% in PBS) (n = 5), C14 at 30 mg/kg (n = 5), P8 at 10 mg/kg (n = 5), or cisplatin at 6 mg/kg (n = 5) intraperitoneally injected daily for 15 days. Body weight and tumor volume were measured every third day. Tumor sizes were calculated using the formula [(length × width2)/2] in mm.

[3] = tested on: cyclin D1 and GSK3β in MDA-MB-231 cells; assay: Western blotting of cyclin D1 and GSK3β; type: cell-based, human; conditions: MDA-MB-231, 3 h; for reduction in cyclin D1 expression: C14 and P8 at IC50-24 (Figure 7 legend), cisplatin 100 µM, doxorubicin 0.5 µM; for reduction in GSK3β expression: IC50-24 (Figure 7 legend), densitometry
Protocol: (§2) To determine the effect of the C14 and P8 compounds over the protein effectors of K-Ras4B, AKT, and ERK, immunoblotting assays were conducted with specific antibodies. In brief, MCF-10A, MDA-MB-231, and MDA-MB-231RR cells were plated in 100-mm culture dishes until 80% of confluents. Cell adhesion was allowed for 24 h. […] After pre-treatment, cells were stimulated with 100 ng/ml EGF for 10 minutes to promote AKT and ERK activation. Later, the whole-cell extracts were obtained by the lysis of the cells (Cytoskeleton) in the presence of proteases and phosphatase inhibitors. Subsequently, the protein extracts were incubated at 4°C for 40 minutes to be clarified by centrifugation for 10 minutes at 14,000 rpm, at 4°C. The protein concentration of each extract was determined by using the Precision Red Advanced Protein Assay Reagent (Cytoskeleton) Then, approximately 25 μg of protein extract was electrophoresed in 10% sodium dodecyl sulfate–polyacrylamide gel electrophoresis (SDS-PAGE) and transferred to polyvinylidene fluoride (PVDF) membranes (Millipore, Billerica, MA, USA). Blots were probed using the following primary antibodies: Total ERK (Cell Signaling, Danvers, MA, USA), pERK (Cell Signaling), Total AKT (Cell Signaling), pAKT (Cell Signaling), GSK3β (Cell Signaling), and cyclin D1 (Abcam) at a 1:1,000 dilution. As a control, an anti-GAPDH antibody (GeneTex, Irvine, CA, USA) was employed at a 1:100,000 dilution and γ-Tubulin (Invitrogen) 1:5,000. Densitometric analysis of blots was performed using the software ImageJ version 1.45 (National Institutes of Health, Bethesda, […], USA).

[4] = tested on: cyclin D1 and GSK3β in MDA-MB-231RR cells; assay: Western blotting of cyclin D1 and GSK3β; type: cell-based, human; conditions: 3 h; for reduction in cyclin D1: C14 and P8 at IC50-24 (Figure 7 legend), cisplatin 100 µM, doxorubicin 0.5 µM; for reduction in GSK3β expression: IC50-24 (Figure 7 legend), densitometry
Protocol: as §2

MDA-MB-231 cells [5] = assay: XTT cell viability assay and IC50 determination; type: cell-based, human; conditions: for IC50: XTT, ± SD; for concentration from which a significant cytotoxic effect is seen: compared to vehicle (DMSO)
Protocol: In order to evaluate the effect of the C14 and P8 compounds over MCF-10A, MCF-7, MDA-MB-231, and […] cell lines, the IC50 of those molecules was determined. In brief, all the cell lines were seeded at a density of 15,000 cells per well in a 96-well microtiter plate (Corning) in a corresponding growth medium for 24 h. Then, cells were treated with increasing concentrations (from 0 to 200 μM) of the C14 and P8 compounds (Enamine, Kyiv, Ukraine). As a positive control, increased concentrations of cisplatin (from 0 to 200 µM) (Accord, Mexico City, Mexico) were employed. Due to that, dimethyl sulfoxide (DMSO) was used as a vehicle, and its increased concentrations were evaluated as the negative control. All the samples were maintained under growth conditions for 24 h and 48 h. At the end of each time, cell viability was determined using the XTT Cell Proliferation Kit II (Roche Applied Science, Mannheim, Germany) following the manufacturer’s protocol. The absorbance was measured in a spectrophotometer Synergy-HTX (BioTek) at a wavelength of 450–500 nm with a reference wavelength of 650 nm. Cell proliferation was expressed as a percentage of viability [(absorbance of treated cells/absorbance of untreated cells × 100)] ± SD.

Structure (SMILES)	viability (MCF-10A cells; 24 h at IC50-24, flow cytometry)	reduction in colony formation (MDA-MB-231 cells [1])	reduction in colony formation (MDA-MB-231RR cells)	colonies persisted (MDA-MB-231RR cells; C14 at IC50-48)	reduction in tumor size [2]	reduction in cyclin D1 expression [3]	reduction in GSK3β expression [3]	reduction in cyclin D1 [4]	reduction in GSK3β expression [4]	IC50 (MDA-MB-231 cells [5]; MDA-MB-231, 24 h, read-out: IC50-24)	IC50 (MDA-MB-231 cells [5]; MDA-MB-231, 48 h, read-out: IC50-48)	concentration from which a significant cytotoxic effect is seen (MDA-MB-231 cells [5]; MDA-MB-231, 48 h)	IC50 (MDA-MB-231 cells [5]; Homo sapiens, MDA-MB-231, 24 h, read-out: IC50-24)	IC50 (MDA-MB-231 cells [5]; Homo sapiens, MDA-MB-231, 48 h, read-out: IC50-48)	apoptosis cells (MCF-10A cells; 24 h, cisplatin 100 µM, doxorubicin 0.5 µM)
CN(CC(=O)NC1CCOc2ccccc21)Cc1cccc(Cl)c1 (stereo not drawn) [C14, 2-[(3-chlorophenyl)-methyl-methyl-amino]-N-croman-4-yl-acetamide]	91.1%	up to 95%	up to 90%	~10%	40.0%	20%	did not show an effect	40%	50%	91.1 ± 3.9 µM	60 ± 6.6 µM	≥ 10 µM			
O=C(CN1CCN(c2cccc(Cl)c2)CC1)N[C@@H]1CCOc2ccccc21 [P8, 2-[4-(3-chlorophenyl)piperazin-1-yl]-N-[(4R)-chroman-4-yl]acetamide]		up to 95%	up to 99%		41.6%	20%	40%	18%	25%			≥ 10 µM	140 ± 33.5 µM	63.2 ± 10.6 µM	
N.N.[Cl][Pt][Cl] [Cisplatin, cisplatin, reference compound]		significant reduction	99%			10%		20%							over 70%
